As usually defined, the kinetic solubility is the concentration staying in solution when a stock, usually in DMSO, is diluted into the medium. The term fraction unbound denotes free concentration divided by total concentration. One may read the microsomal CLint as the rate of metabolic loss divided by the concentration. Lower therefore signals slow turnover. What is called EC50 is the concentration needed to bring the measured effect to its halfway point.

The source of these data is paper PMC6580095, “C8-substituted pyrido[3,4-d]pyrimidin-4(3H)-ones: Studies towards the identification of potent, cell penetrant Jumonji C domain containing histone lysine demethylase 4 subfamily (KDM4) inhibitors, compound profiling in cell-based target engagement assays” (European Journal of Medicinal Chemistry, 2019).

One data set relates to LNCaP cells. The experiment in a line: Cell uptake and stability in LNCaP cellular culture. As to conditions: 10 μM, up to 120 h. Format: in vitro ADME, human.
A short description of data set [1]: Kinetic aqueous solubility.
A short description of data set [2]: Human plasma protein binding.
A short description of data set [3]: In vitro intrinsic microsomal clearance, rat. As to conditions: microsomes.
A short description of data set [4]: In vitro intrinsic microsomal clearance, mouse. The settings on record: microsomes.
Data set [5] in a line: In vitro intrinsic microsomal clearance, human. The settings on record: microsomes.
The subject of the next data set is KDM5. The settings on record: H3K4Me3 levels in PC9 cells; cited from earlier work.
Data set [6] addresses T1, KDM5B (Homo sapiens, UniProt Q9UGL1).
T1 sequence (Q9UGL1 26-772): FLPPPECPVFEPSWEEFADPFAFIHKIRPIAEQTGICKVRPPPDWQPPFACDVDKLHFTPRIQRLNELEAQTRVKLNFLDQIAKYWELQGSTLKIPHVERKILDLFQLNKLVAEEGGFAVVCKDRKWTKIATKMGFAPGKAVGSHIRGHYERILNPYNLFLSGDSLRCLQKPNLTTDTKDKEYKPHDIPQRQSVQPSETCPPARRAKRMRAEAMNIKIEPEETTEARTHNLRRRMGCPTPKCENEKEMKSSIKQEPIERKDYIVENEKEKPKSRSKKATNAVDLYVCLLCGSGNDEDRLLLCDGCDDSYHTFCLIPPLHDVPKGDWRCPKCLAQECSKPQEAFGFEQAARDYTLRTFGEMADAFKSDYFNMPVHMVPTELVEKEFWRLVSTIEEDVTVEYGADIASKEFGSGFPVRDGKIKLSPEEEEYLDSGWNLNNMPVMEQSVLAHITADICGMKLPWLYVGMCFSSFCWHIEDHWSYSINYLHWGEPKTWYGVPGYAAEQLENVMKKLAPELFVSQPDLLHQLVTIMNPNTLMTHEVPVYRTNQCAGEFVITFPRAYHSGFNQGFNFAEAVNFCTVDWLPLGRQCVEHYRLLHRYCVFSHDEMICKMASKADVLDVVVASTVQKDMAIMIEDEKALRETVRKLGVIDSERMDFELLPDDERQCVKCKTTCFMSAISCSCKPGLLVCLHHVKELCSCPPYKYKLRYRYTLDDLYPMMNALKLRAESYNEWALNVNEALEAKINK
Nature of the data set: cell-based.

Data set [7] concerns the target KDM5B (Homo sapiens, UniProt Q9UGL1). The experiment in a line: cell-based. The source holds these as a separate data set.
Target sequence in this assay (Q9UGL1 whole entry): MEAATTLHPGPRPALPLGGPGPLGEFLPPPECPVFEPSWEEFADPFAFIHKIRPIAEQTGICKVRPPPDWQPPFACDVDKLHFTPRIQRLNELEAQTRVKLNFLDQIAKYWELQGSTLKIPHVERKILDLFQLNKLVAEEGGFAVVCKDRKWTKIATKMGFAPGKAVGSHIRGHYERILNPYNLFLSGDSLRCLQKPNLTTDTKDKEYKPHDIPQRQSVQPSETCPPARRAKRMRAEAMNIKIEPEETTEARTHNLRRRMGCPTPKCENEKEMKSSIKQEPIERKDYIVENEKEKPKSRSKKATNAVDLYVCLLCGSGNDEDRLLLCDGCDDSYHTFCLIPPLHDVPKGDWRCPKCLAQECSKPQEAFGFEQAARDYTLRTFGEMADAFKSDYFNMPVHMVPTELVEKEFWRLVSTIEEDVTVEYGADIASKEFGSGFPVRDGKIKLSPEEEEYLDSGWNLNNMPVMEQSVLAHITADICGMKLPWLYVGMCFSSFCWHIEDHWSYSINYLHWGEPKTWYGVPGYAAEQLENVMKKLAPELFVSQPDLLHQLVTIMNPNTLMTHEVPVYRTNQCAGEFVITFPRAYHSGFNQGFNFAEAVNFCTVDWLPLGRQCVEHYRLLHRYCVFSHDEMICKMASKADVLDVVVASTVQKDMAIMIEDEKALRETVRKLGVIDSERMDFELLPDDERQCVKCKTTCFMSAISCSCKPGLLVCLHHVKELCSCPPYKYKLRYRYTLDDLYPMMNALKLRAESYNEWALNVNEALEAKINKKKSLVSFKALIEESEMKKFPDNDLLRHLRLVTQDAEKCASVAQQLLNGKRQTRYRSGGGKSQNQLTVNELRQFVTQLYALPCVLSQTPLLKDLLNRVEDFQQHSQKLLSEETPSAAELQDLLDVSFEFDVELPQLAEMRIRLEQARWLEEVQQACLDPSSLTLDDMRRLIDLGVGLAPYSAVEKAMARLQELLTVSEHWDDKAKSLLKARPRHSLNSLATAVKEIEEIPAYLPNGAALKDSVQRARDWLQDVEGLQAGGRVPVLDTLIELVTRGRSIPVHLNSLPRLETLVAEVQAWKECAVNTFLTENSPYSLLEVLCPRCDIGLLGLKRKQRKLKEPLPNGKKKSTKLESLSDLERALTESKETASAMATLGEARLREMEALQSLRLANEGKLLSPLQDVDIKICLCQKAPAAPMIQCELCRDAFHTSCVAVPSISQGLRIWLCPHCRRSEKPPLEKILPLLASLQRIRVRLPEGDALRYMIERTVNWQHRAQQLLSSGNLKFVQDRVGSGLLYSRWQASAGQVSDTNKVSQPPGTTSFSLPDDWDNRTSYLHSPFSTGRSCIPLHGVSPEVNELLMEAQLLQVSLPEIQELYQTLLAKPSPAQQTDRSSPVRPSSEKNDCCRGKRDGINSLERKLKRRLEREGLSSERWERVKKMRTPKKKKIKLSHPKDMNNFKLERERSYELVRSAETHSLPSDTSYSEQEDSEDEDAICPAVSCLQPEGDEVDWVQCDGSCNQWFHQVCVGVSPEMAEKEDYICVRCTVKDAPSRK

Molecules are shown by their SMILES. ≈ marks a conversion by molar mass, not a printed value. Where two headings read alike, the source gives them in different places.

Procedure for LNCaP cells: Following 1, 6, 24, 48, 72 and 120 h incubation, media was collected from cells and immediately frozen at −80 °C. Cells were trypsinised, pelleted and then frozen at −80 °C until analysis.
Cell and tissue culture media extracts were analysed using a Dionex Ultimate 3000 UHPLC system coupled to a Thermo Scientific Q Exactive Plus orbitrap mass spectrometer (Thermo Fisher Scientific Inc., Waltham, USA). Separation of analytes was achieved using an Acquity UPLC HSS T3 column (1.8 μm, 100 × 2.1 mm) (Waters, Elstree, UK) at a temperature of 50 °C and a binary mobile phase gradient at a flow rate of 0.4 mL/min. […] Sample analysis was by electrospray atmospheric pressure ionization combined with full scan acquisition in positive ion mode. […] Full MS/dd-MS^2 (full MS scan followed by data dependent MS/MS) and Full MS/AIF (full MS scan followed by all ion fragmentation) workflows were used in combination. Identification/presence of metabolites was undertaken with the aid of the software Compound Discoverer (v2.0.0.303, Thermo Fisher Scientific Inc., Waltham, USA).

Consider `O=c1[nH]cnc2c(-n3cc(CCN4CCC5(CCc6ccccc65)CC4)cn3)nccc12` [Compound 19a, 8-(4-(2-(2,3-Dihydrospiro[indene-1,4′-piperidin]-1′-yl)ethyl)-1H-pyrazol-1-yl)pyrido[3,4-d]pyrimidin-4(3H)-one], for which the cell uptake entry with LNCaP cells was “uptake of the parent compounds in a time-dependent manner”. Further, in the data set on LNCaP cells, the “stability in cellular culture (metabolites in cells or media)” value is given as “no metabolites detected”. The solubility (kinetic) in [1] stood at 93.3 µM (≈ 39.8 µg/mL). Moreover, the fraction unbound in data set [2] is 0.11. Also, the microsomal CLint in [3] worked out at 19.8 µL/min/mg; in data set [4] it was 7.5 µL/min/mg; in [5], 24.7 µL/min/mg.

As to `CC(C)c1c(-c2cnn(C(C)(C)C)c2)[nH]c2c(C#N)cnn2c1=O` [Compound 6], the values for the EC50 in the data set with KDM5, at KDM5B [6] and at KDM5B [7] were 0.34 µM, 0.3 µM and 0.6 µM, respectively.

Consider `O=c1[nH]cnc2c(-n3cc(CCN4CCC5(CCc6ccccc65)CC4)cn3)cccc12` [Compound 41], for which, in the data set with LNCaP cells, the cell uptake result is reported as “uptake of the parent compounds in a time-dependent manner” and the “stability in cellular culture (metabolites in cells or media)” value is on record as “no metabolites detected”.
